Structures are written as SMILES.

Data set [1] in a line: pH of lidocaine donor solutions of varying base:salt ratio (Example 1). The class given is physicochemical.
Experimental: Two identical experiments were conducted at pHs 4.95 and 7.35, one at pH 6.85, and three at pH 6.25.
Data set [2] can be described thus: transdermal flux of lidocaine and epinephrine from gel formulations 14 and 15 (Example 3). The following applies: formulation 14 (pH 3.68) vs 15 (pH 6.42); samples at 10, 30, 60 and 90 minutes.
Experimental: The formulation 14 and 15 gels were subjected to transdermal flux experiments using heat stripped chest and breast skin from human cadavers using the electrotransport permeation cell described in Example 2 and FIG. 3. Measurements were taken from the receptor compartment of the cell at 10 minutes, 30 minutes, 60 minutes, and 90 minutes after start of application of electrotransport current.

For `CCN(CC)CC(=O)Nc1c(C)cccc1C` [lidocaine], the pH in data set [1] (0 mmoles lidocaine base, 199 mmoles lidocaine HCl) came out at 4.95; in data set [1] (2.1 mmoles lidocaine base, 195 mmoles lidocaine HCl) it was 6.25; in data set [1] (6.0 mmoles lidocaine base, 191 mmoles lidocaine HCl), 6.85; in data set [1] (20.3 mmoles lidocaine base, 179 mmoles lidocaine HCl), 7.35.

Turning to `CNC[C@H](O)c1ccc(O)c(O)c1` [epinephrine], the “transdermal flux, formulation 14 versus 15” value in data set [2] is “did not have a significant statistical difference between formulation 14 and 15”.

These data come from patent US5990179A, “Composition and method of enhancing electrotransport agent delivery” (ALZA Corporation, priority 1995, dated 1999).
